# Laboratory results published in patent US20260028365A1 (BIOGEN MA INC., priority 2022, published 2026).
# Target: Tyk2 (Homo sapiens (Human), UniProt P29597)
# Assay: pSTAT4 Cell Assay (MSD, NK92 cells)
# Format: cell-based
# Conditions: not given
# Method: The inhibitory potency of compounds of the disclosure against the Tyk2 kinase activity on STAT4 was evaluated using an MSD-platform plate-based assay format. NK92 cells natively expressing STAT4 and Tyk2 were serum-starved to reduce background phosphorylation levels, then cells were treated compounds for 1 hr with a 10-point four-fold dilution series starting at 10 μM. Cells were then stimulated with 30 ng/mL […] for 15 minutes. […] The data were normalized and the percent activity versus log concentration of compound were fitted with a 4-parameter logistic model to generate to generate IC50 curves.
# Tyk2, sequence (P29597 whole entry): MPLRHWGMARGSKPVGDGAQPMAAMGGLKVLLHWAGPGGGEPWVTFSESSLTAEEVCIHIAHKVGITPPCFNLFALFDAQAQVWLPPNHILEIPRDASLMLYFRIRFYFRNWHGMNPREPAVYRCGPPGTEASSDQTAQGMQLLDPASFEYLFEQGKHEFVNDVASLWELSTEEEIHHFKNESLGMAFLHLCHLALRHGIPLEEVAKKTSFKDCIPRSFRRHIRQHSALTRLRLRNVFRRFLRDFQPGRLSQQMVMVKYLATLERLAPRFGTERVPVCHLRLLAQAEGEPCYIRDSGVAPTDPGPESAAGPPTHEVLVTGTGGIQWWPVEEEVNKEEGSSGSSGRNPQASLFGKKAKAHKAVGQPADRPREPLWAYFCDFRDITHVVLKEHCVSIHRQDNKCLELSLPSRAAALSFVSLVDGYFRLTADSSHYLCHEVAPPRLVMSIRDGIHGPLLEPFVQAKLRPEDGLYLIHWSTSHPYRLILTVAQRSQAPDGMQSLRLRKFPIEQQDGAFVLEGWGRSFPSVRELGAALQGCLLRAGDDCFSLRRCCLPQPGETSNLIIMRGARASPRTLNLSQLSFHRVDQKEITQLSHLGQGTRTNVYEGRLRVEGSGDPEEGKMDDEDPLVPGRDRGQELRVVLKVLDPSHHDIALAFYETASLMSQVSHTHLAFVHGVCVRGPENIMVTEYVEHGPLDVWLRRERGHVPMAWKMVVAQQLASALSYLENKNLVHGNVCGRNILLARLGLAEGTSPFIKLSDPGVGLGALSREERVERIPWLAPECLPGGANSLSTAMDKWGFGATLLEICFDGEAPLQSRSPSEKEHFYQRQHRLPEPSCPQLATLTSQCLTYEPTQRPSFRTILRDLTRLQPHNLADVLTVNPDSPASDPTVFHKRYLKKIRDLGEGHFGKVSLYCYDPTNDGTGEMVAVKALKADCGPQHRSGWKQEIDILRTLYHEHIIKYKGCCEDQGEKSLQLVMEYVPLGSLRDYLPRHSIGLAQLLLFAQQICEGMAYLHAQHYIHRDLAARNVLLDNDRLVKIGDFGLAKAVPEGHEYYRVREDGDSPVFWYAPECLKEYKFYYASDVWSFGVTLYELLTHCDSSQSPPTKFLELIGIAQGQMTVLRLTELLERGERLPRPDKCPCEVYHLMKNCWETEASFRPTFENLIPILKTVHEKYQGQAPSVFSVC
row,SMILES,IC50
1,"CN1CCc2sc(-c3cnc(NC=O)cc3Nc3ccnc(C(C)(F)F)n3)nc2C1 [Example 796, N-(4-((2-(1,1-difluoroethyl)pyrimidin-4-yl)amino)-5-(5-methyl-4,5,6,7-tetrahydrothiazolo[4,5-c]pyridin-2-yl)pyridin-2-yl)formamide]",10 to 100 nM
2,"CC(=O)Nc1cc(Nc2cc(C)nc(C(C)(F)F)n2)c(-c2ccn(C(F)F)n2)cn1 [Example 811, N-(4-((2-(1,1-difluoroethyl)-6-methylpyrimidin-4-yl)amino)-5-(1-(difluoromethyl)-1H-pyrazol-3-yl)pyridin-2-yl)acetamide]",10 to 100 nM

# Same assay, conditions: MSD
row,SMILES,IC50
1,"CO[C@H]1C[C@H](Oc2cc(Nc3cc(NC(C)=O)ncc3-c3ccn(C)n3)nc(C(C)(F)F)c2)C1 [Example 148, N-(4-((6-(1,1-difluoroethyl)-4-((1r,3r)-3-methoxycyclobutoxy)pyridin-2-yl)amino)-5-(1-methyl-1H-pyrazol-3-yl)pyridin-2-yl)acetamide]",≤ 10 nM
2,"CC(=O)Nc1cc(Nc2cc(C)nc(C(C)(F)F)n2)c(OCC2(C)CC2)cn1 [Example 58, N-(4-((2-(1,1-difluoroethyl)-6-methylpyrimidin-4-yl)amino)-5-((1-methylcyclopropyl)methoxy)pyridin-2-yl)acetamide]",10 to 100 nM
3,"COc1nc(-c2cnc(NC(C)=O)cc2Nc2cc(C)nc(C(C)(F)F)n2)nn1C [Example 609, N-(4-((2-(1,1-difluoroethyl)-6-methylpyrimidin-4-yl)amino)-5-(5-methoxy-1-methyl-1H-1,2,4-triazol-3-yl)pyridin-2-yl)acetamide]",100 to 1000 nM
4,"CC(=O)Nc1cc(Nc2cc(C)nc(C(C)(F)F)n2)c(OCc2ccnc(F)c2)cn1 [Example 120, N-(4-((2-(1,1-difluoroethyl)-6-methylpyrimidin-4-yl)amino)-5-((2-fluoropyridin-4-yl)methoxy)pyridin-2-yl)acetamide]",10 to 100 nM
5,"COC(C)CCOc1cnc(NC(C)=O)cc1Nc1cc(C)nc(C(C)(F)F)n1 (centres unmarked) [Example 137, N-(4-((2-(1,1-difluoroethyl)-6-methylpyrimidin-4-yl)amino)-5-(3-methoxybutoxy)pyridin-2-yl)acetamide]",10 to 100 nM
6,"CC(=O)Nc1cc(Nc2cc(C)nc(C(C)(F)F)n2)c(OC[C@@H]2COC(C)(C)O2)cn1 [Example 110, (R)-N-(4-((2-(1,1-difluoroethyl)-6-methylpyrimidin-4-yl)amino)-5-((2,2-dimethyl-1,3-dioxolan-4-yl)methoxy)pyridin-2-yl)acetamide]",10 to 100 nM
7,"CC(=O)Nc1cc(Nc2cc(C)nc(C(C)(F)F)n2)c(OCC2CCN(C)C2)cn1 (centres unmarked) [Example 480, N-(4-((2-(1,1-difluoroethyl)-6-methylpyrimidin-4-yl)amino)-5-((1-methylpyrrolidin-3-yl)methoxy)pyridin-2-yl)acetamide]",10 to 100 nM
8,"CCCCOc1cnc(NC(C)=O)cc1Nc1cc(C)nc(C(C)(F)F)n1 [Example 105, N-(5-butoxy-4-((2-(1,1-difluoroethyl)-6-methylpyrimidin-4-yl)amino)pyridin-2-yl)acetamide]",≤ 10 nM
9,"COc1ccnc(-c2cnc(NC(C)=O)cc2Nc2cc(C)nc(C(C)(F)F)n2)n1 [Example 658, N-(4-((2-(1,1-difluoroethyl)-6-methylpyrimidin-4-yl)amino)-5-(4-methoxypyrimidin-2-yl)pyridin-2-yl)acetamide]",≥ 1000 nM

# Now from value to molecule:
row,IC50,SMILES
1,≤ 10 nM,"COc1cnc(NC(C)=O)cc1Nc1cc(-c2cnc(C)s2)nc(C(C)(F)F)n1 [Example 387, N-(4-((2-(1,1-difluoroethyl)-6-(2-methylthiazol-5-yl)pyrimidin-4-yl)amino)-5-methoxypyridin-2-yl)acetamide]"
2,10 to 100 nM,"CC(=O)Nc1cc(Nc2ccnc(C(C)(F)F)n2)c(-c2cnc(C)cn2)cn1 [Example 693, N-(4-((2-(1,1-difluoroethyl)pyrimidin-4-yl)amino)-5-(5-methylpyrazin-2-yl)pyridin-2-yl)acetamide]"
3,10 to 100 nM,"CC(=O)Nc1cc(Nc2cc(C)nc(C(C)(F)F)n2)c(OCc2nnc(C)s2)cn1 [Example 118, N-(4-((2-(1,1-difluoroethyl)-6-methylpyrimidin-4-yl)amino)-5-((5-methyl-1,3,4-thiadiazol-2-yl)methoxy)pyridin-2-yl)acetamide]"
4,≤ 10 nM,"CC(=O)Nc1cc(Nc2cc(C)nc(C(C)(F)F)n2)c(-c2ccc([C@@H]3COCCN3C)cn2)cn1 (single isomer, unassigned) [Example 646, (R)-N-(4′-((2-(1,1-difluoroethyl)-6-methylpyrimidin-4-yl)amino)-5-(4-methylmorpholin-3-yl)-[2,3′-bipyridin]-6′-yl)acetamide or (S)-N-(4′-((2-(1,1-difluoroethyl)-6-methylpyrimidin-4-yl)amino)-5-(4-methylmorpholin-3-yl)-[2,3′-bipyridin]-6′-yl)acetamide]"
5,≤ 10 nM,"CC(=O)Nc1cc(Nc2cc(C)nc(C(C)(F)F)n2)c(OC[C@H]2COC(C)(C)O2)cn1 [Example 124, (S)-N-(4-((2-(1,1-difluoroethyl)-6-methylpyrimidin-4-yl)amino)-5-((2,2-dimethyl-1,3-dioxolan-4-yl)methoxy)pyridin-2-yl)acetamide]"
6,10 to 100 nM,"COCc1ccc(-c2cnc(NC(C)=O)cc2Nc2cc(C)nc(C3CCCOC3)n2)nc1 (centres unmarked) [Example 571, N-(5-(methoxymethyl)-4′-((6-methyl-2-(tetrahydrO2H-pyran-3-yl)pyrimidin-4-yl)amino)-[2,3′-bipyridin]-6′-yl)acetamide]"
7,≤ 10 nM,"CC(=O)Nc1cc(Nc2cc(C)nc(C(C)(F)F)n2)c(-c2cc3n(n2)CCN(C)C3C)cn1 (centres unmarked) [Example 683, N-(4-((2-(1,1-difluoroethyl)-6-methylpyrimidin-4-yl)amino)-5-(4,5-dimethyl-4,5,6,7-tetrahydropyrazolo[1,5-a]pyrazin-2-yl)pyridin-2-yl)acetamide]"
8,≤ 10 nM,"CCc1cc(Nc2cc(NC(C)=O)ncc2-c2cc3n(n2)CCN(C)C3)nc(C(C)(F)F)n1 [Example 721, N-(4-((2-(1,1-difluoroethyl)-6-ethylpyrimidin-4-yl)amino)-5-(5-methyl-4,5,6,7-tetrahydropyrazolo[1,5-a]pyrazin-2-yl)pyridin-2-yl)acetamide]"
9,10 to 100 nM,"COc1cnc(NC(C)=O)cc1Nc1cc(-c2cc(F)c3nn(C)cc3c2)nc(C(C)(F)F)n1 [Example 396, N-(4-((2-(1,1-difluoroethyl)-6-(7-fluoro-2-methyl-2H-indazol-5-yl)pyrimidin-4-yl)amino)-5-methoxypyridin-2-yl)acetamide]"
10,10 to 100 nM,"CC(=O)Nc1cc(Nc2cc(C)nc(C(C)(F)F)n2)c(OCc2nc(C)cs2)cn1 [Example 112, N-(4-((2-(1,1-difluoroethyl)-6-methylpyrimidin-4-yl)amino)-5-((4-methylthiazol-2-yl)methoxy)pyridin-2-yl)acetamide]"
11,≤ 10 nM,"CC(=O)Nc1cc(Nc2cc(C)nc(C(C)(F)F)n2)c(OCC23CC(C2)C3)cn1 [Example 100, N-(5-(bicyclo[1.1.1]pentan-1-ylmethoxy)-4-((2-(1,1-difluoroethyl)-6-methylpyrimidin-4-yl)amino)pyridin-2-yl)acetamide]"
12,≤ 10 nM,"CC(=O)Nc1cc(Nc2cc(C)nc(C(C)(F)F)n2)c(C2=NC3C(=O)OCC3C=N2)cn1 (centres unmarked) [Example 682, N-(4-((2-(1,1-difluoroethyl)-6-methylpyrimidin-4-yl)amino)-5-(7-oxO4a,5,7,7a-tetrahydrofuro[3,4-d]pyrimidin-2-yl)pyridin-2-yl)acetamide]"
